{"source": "paper PMC9036794", "about": "“Improving astaxanthin production in Escherichia coli by co-utilizing CrtZ enzymes with different substrate preference” (Microbial Cell Factories, 2022)", "format_in_all_cases": "cell-based", "key": {"PAcrtZ [1]": {"target": "T1, PAcrtZ (Pantoea agglomerans, UniProt E9LFG1)", "T1 construct": "gene crtZ; gene integrated into E. coli chromosome (manA site) under P-trc; whole-cell read-out", "T1 sequence (E9LFG1 entry or part of it)": "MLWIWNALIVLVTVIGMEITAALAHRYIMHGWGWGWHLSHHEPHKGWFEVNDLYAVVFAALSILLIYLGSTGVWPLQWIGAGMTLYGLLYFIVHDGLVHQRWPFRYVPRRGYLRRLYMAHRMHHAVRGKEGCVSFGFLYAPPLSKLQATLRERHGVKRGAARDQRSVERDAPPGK", "experiment": "zeaxanthin formed in beta-carotene-producing E. coli, HPLC", "settings": "engineered E. coli CAR032 background (Zea003, Zea004), shake flask, 30 °C; conversion to zeaxanthin; whole-cell titre only"}, "PCcrtZ [2]": {"target": "T2, PCcrtZ (Paracoccus sp. PC1, UniProt Q44262)", "T2 construct": "gene crtZ; synthesized gene, integrated into E. coli chromosome (manA site) under P-trc; whole-cell read-out", "T2 sequence (Q44262 1-162)": "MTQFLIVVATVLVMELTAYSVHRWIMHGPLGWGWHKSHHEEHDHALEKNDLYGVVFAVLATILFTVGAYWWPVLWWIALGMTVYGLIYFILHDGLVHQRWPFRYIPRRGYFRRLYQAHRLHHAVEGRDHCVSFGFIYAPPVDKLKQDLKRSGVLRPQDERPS", "experiment": "zeaxanthin formed in beta-carotene-producing E. coli, HPLC", "settings": "engineered E. coli CAR032 background (Zea001, Zea002), shake flask, 30 °C; conversion to zeaxanthin, weak; whole-cell titre only", "excerpt": "zeaxanthin formed in beta-carotene-producing E. coli, HPLC on PCcrtZ | PCcrtZ from Paracoccus sp."}, "crtW*": {"target": "T3, crtW* (Brevundimonas sp. NBRC 101024, UniProt Q4W8B8)", "T3 construct": "integrated into E. coli chromosome (mgsA, lacZ sites) under P-trc; whole-cell read-out", "T3 sequence (Q4W8B8 1-244)": "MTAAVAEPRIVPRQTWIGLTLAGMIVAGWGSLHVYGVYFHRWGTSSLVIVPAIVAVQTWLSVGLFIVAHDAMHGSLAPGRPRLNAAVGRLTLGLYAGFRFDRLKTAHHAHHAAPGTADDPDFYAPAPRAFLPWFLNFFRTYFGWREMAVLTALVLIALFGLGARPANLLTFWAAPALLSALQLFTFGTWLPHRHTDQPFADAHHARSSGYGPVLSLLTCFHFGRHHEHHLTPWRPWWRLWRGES", "experiment": "canthaxanthin formed in beta-carotene-producing E. coli, HPLC", "settings": "engineered E. coli (Can003, Can004), shake flask, 30 °C; conversion to canthaxanthin; whole-cell titre only"}, "PAcrtZ [3]": {"target": "T1, PAcrtZ", "experiment": "astaxanthin formed in canthaxanthin-producing E. coli, HPLC", "settings": "engineered E. coli Can004 background (Ast014, Ast015), shake flask, 30 °C; conversion to astaxanthin; whole-cell titre only"}, "PCcrtZ [4]": {"target": "T2, PCcrtZ", "experiment": "astaxanthin formed in canthaxanthin-producing E. coli, HPLC", "settings": "engineered E. coli Can004 background (Ast016, Ast017), shake flask, 30 °C; conversion to astaxanthin; whole-cell titre only"}}, "data": [{"smiles": "CC1=C(/C=C/C(C)=C/C=C/C(C)=C/C=C/C=C(C)/C=C/C=C(C)/C=C/C2=C(C)CCCC2(C)C)C(C)(C)CCC1", "note": "[β-carotene]", "values": [{"measurement": "zeaxanthin formed in beta-carotene-producing E. coli, HPLC", "setting": "PAcrtZ [1]", "value": "PAcrtZ from P. agglomerans therefore exhibited a substrate preference for β-carotene"}, {"measurement": "zeaxanthin formed in beta-carotene-producing E. coli, HPLC", "setting": "PCcrtZ [2]", "value": "PCcrtZ from Paracoccus sp. PC1 showed weak activity in the conversion of β-carotene into zeaxanthin"}, {"measurement": "canthaxanthin formed in beta-carotene-producing E. coli, HPLC", "setting": "crtW*", "value": "CrtW converts β-carotene into keto-carotenoids"}]}, {"smiles": "CC1=C(/C=C/C(C)=C/C=C/C(C)=C/C=C/C=C(C)/C=C/C=C(C)/C=C/C2=C(C)C(=O)CCC2(C)C)C(C)(C)CCC1=O", "note": "[canthaxanthin]", "values": [{"measurement": "astaxanthin formed in canthaxanthin-producing E. coli, HPLC", "setting": "PAcrtZ [3]", "value": "Ast014 (Can004 with one copy of PAcrtZ)"}, {"measurement": "astaxanthin formed in canthaxanthin-producing E. coli, HPLC", "setting": "PCcrtZ [4]", "value": "Ast016 (Can004 with one copy of PCcrtZ) produced similar amounts of astaxanthin"}]}]}
